Where two headings read alike, the source gives them in different places. Numbered stars: 1 amine (or outer) side, 2 acyl side, 3 side chain; on linkers, the order of the positions; unused ones are H or OH. Suc = O=C(CCC(=O)[*:2])[*:1]; Pnh(SO3) = not defined here
Biological target: thrombin (Homo sapiens, UniProt P00734)
Test: Fibrin-Clot Assay
Format: biochemical
[1] = read-out: IC50 Fibrin-Clot Assay
[2] = read-out: IC50 Fibrin-Clot Assay (class symbol)

For “Suc-Tyr(SO3 H)-Glu-Pro-Ile-Pro-Glu-Glu-Ala-Cha-D-Glu-OH [Example 5]”, the IC50 [1] was 1.7 µM and the IC50 [2] was under 5 µM.
With `CC[C@H](C)[C@H](NC(=O)[C@@H]1CCCN1C(=O)[C@H](COS(=O)(=O)O)NC(=O)[C@H](Cc1ccc(O)cc1)NC(=O)CCC(=O)O)C(=O)N1CCC[C@H]1C(=O)N[C@@H](COS(=O)(=O)O)C(=O)N[C@@H](COS(=O)(=O)O)C(=O)N[C@@H](C)C(=O)N[C@@H](CC1CCCCC1)C(=O)N[C@@H](COS(=O)(=O)O)C(=O)O` [Example 8, Suc-Tyr-Ser(SO3 H)-Pro-Ile-Pro-Ser(SO3 H)-Ser(SO3 H)-Ala-Cha-Ser(SO3 H)-OH] the IC50 [1] was 0.21 µM and the IC50 [2] was under 5 µM.
`CC[C@H](C)[C@H](NC(=O)[C@@H]1CCCN1C(=O)[C@H](CCC(=O)O)NC(=O)[C@H](Cc1ccc(OS(=O)(=O)O)cc1)NC(=O)CCC(=O)O)C(=O)N1CCC[C@H]1C(=O)N[C@@H](CCC(=O)O)C(=O)N[C@@H](CCC(=O)O)C(=O)N[C@@H](C)C(=O)N[C@@H](Cc1ccc(NS(=O)(=O)O)cc1)C(=O)N[C@H](CCC(=O)O)C(=O)O` [Example 2, Suc-TVr(SO3 H)-Glu-Pro-Ile-Pro-Glu-Glu-Ala-Phe(pNHSO3 H)-D-Glu-OH] was tested, and the IC50 [1] was 15 µM and the IC50 [2] was under 25 µM.
“Suc-Tyr-Pro-Ile-Pro-Glu-Glu-Ala-Pnh(SO3)-D-Glu-OH (Suc-YPIPEEA-{Pnh(SO3)-dE-OH}; reading uncertain; also: printed as Suc-Tyr-Pro-Ile-Pro-Glu-Glu-Ala-Pnh(SO3)-D-Glu-OH) [Example 1]” was tested, and the IC50 [1] was 2.5 µM and the IC50 [2] was under 5 µM.
“Suc-Tyr-Glu-Pro-Ile-Pro-Glu-Glu-Phe(pNHSO3 H)-D-Glu-OH [Example 3]” gave an IC50 [1] of 0.12 µM.
`CC[C@H](C)[C@H](NC(=O)[C@@H]1CCCN1C(=O)[C@H](CCC(=O)O)NC(=O)[C@H](Cc1ccc(NS(=O)(=O)O)cc1)NC(=O)CCC(=O)O)C(=O)N1CCC[C@H]1C(=O)N[C@@H](CCC(=O)O)C(=O)N[C@@H](CCC(=O)O)C(=O)N[C@@H](C)C(=O)N[C@@H](CC1CCCCC1)C(=O)N[C@H](CCC(=O)O)C(=O)O` [Example 4, Suc-Phe(pNHSO3 H)-Glu-Pro-Ile-Pro-Glu-Glu-Ala-Cha-D-Glu-OH] showed an IC50 [1] of 13 µM and an IC50 [2] of under 25 µM.

— US5541161A, “Stabilized sulfonate, sulfate, phosphonate and phosphate derivatives of hirudin” (Merrell Pharmaceuticals Inc., priority 1993, dated 1996)
